Publication PMC10840338, “High efficacy of the F-ATP synthase inhibitor TBAJ-5307 against nontuberculous mycobacteria in vitro and in vivo” (The Journal of Biological Chemistry, 2024)

Target: T1, F1FO-ATP synthase (FO domain, subunit c ring with subunit a) (Mycobacteroides abscessus, UniProt B1MLV6+B1MLV7)
T1 construct: gene atpE; native F1FO-ATP synthase in inverted-membrane vesicles of M. subsp. abscessus R variant; with subunit a (atpB); whole complex α3:β3:γ:ε:b-δ:b’:a:c9
Assay: ATP synthesis inhibition in inverted-membrane vesicles (luminescence)
Format: biochemical

SMILES: COc1cc([C@](O)(CCN(C)C)[C@@H](c2cc3cc(Br)ccc3nc2OC)c2ccnc(OC)c2OC)cc(OC)n1 [TBAJ-5307]
- IC50: 1.4 nM
